Reference: US9469611B2, “Use of dihydroimidazolones for the treatment of dogs” (BOEHRINGER INGELHEIM VETMEDICA GMBH, priority 2002, dated 2016)
Where “and” joins values, the source holds several entries; their conditions need not be identical. Identical values can stand only once. Like-named read-outs stand apart in the source and are kept apart here. Marks after values point to notes of the source that are not given here.

What was measured:
benzodiazepine receptor = details: co administration of flumazenil; cited from earlier work
[1] = plasma concentration of AWD 131-138 (HPLC/mass spectrometry); type: in vivo, dog; details: for concentration at 12 h: 12 hours after application
Experimental: A pharmacokinetic study was performed at the beginning of treatment in 2 dogs with AWD 131-138 monotherapy and in 4 dogs with a combination therapy of AWD 131-138 and phenobarbital or primidone. All 6 dogs received 5 mg/kg bodyweight AWD 131-138. Blood was taken 3 times every 2 hours. […] The same method was used as a compliance control during the follow up examinations. Blood was taken two and twelve hours after oral administration of AWD 131-138.
In six dogs entering the pilot study with AWD 131-138 a pharmacokinetic study was performed. AWD 131-138 was measured in plasma samples two, four and six hours after application. The initial dosage of AWD 131-138 was 5 mg/kg bodyweight p.o. in all cases.

[2] = self administration paradigm; cited from earlier work
[3] = side effects: owner questionnaire and follow up examinations with blood work
[4] = system: dogs with chronic idiopathic epilepsy; assay: add-on therapy in dogs with chronic idiopathic epilepsy not responding to phenobarbital or primidone; type: in vivo, dog
[5] = system: dogs with newly diagnosed idiopathic epilepsy; assay: monotherapy in dogs with newly diagnosed idiopathic epilepsy (AWD 131-138 pilot study; retrospective phenobarbital, primidone)
[6] = system: chemically induced seizure threshold; details: dogs, cited from earlier work
[7] = system: benzodiazepine binding site of the GABAA receptor; details: broad receptor screen; cited from earlier work
[8] = system: cloned human GABA receptor complexes; details: cited from earlier work
[9] = monkeys; cited from earlier work
calcium channel = details: cited from earlier work
[10] = 12 newly diagnosed dogs, monotherapy
[11] = add-on, abnormalities already at the beginning of the study
[12] = grand mal seizures, add-on to phenobarbital or primidone
[13] = grand mal seizures, on phenobarbital or primidone before add-on
[14] = median, on phenobarbital/primidone before add-on
[15] = grand mal seizures, baseline before monotherapy
[16] = grand mal seizures, monotherapy
[17] = median group value, baseline before monotherapy
[18] = median group value, monotherapy, asterisk = P<0.05 vs before

O=C1N=C(N2CCOCC2)CN1c1ccc(Cl)cc1 [AWD 131-138, 1-(4-chlorophenyl)-4-(4-morpholinyl)-2,5-dihydro-1H-imidazol-2-one]
antagonism of anticonvulsive activity by flumazenil (benzodiazepine receptor): partly antagonised | antagonism of anxiolytic activity by flumazenil (benzodiazepine receptor): fully antagonised | AWD 131-138 plasma concentration ([1]; 2 hours after 5 mg/kg p.o., AWD 131-138 monotherapy, individual dogs): 720.0 ng/mL and 2579.2 ng/mL | AWD 131-138 plasma concentration ([1]; 2 hours after 5 mg/kg p.o., phenobarbital combination therapy, individual dogs): 23.27 ng/mL and 1019.5 ng/mL | AWD 131-138 plasma concentration ([1]; 2 hours after 5 mg/kg p.o., primidone combination therapy, individual dogs): 2392.3 ng/mL | AWD 131-138 plasma concentration ([1]; 4 hours after 5 mg/kg p.o., AWD 131-138 monotherapy, individual dogs): 702.7 ng/mL and 1461.0 ng/mL | AWD 131-138 plasma concentration ([1]; 4 hours after 5 mg/kg p.o., phenobarbital combination therapy, individual dogs): Bld | AWD 131-138 plasma concentration ([1]; 4 hours after 5 mg/kg p.o., primidone combination therapy, individual dogs): 1021.5 ng/mL and 2438.7 ng/mL | AWD 131-138 plasma concentration ([1]; 6 hours after 5 mg/kg p.o., AWD 131-138 monotherapy, individual dogs): 229.5 ng/mL and 709.0 ng/mL | AWD 131-138 plasma concentration ([1]; 6 hours after 5 mg/kg p.o., phenobarbital combination therapy, individual dogs): bld (bld (below limit of detection): <2 ng/mL) | AWD 131-138 plasma concentration ([1]; 6 hours after 5 mg/kg p.o., primidone combination therapy, individual dogs): 448.1 ng/mL and 1289.0 ng/mL | concentration at 2 h ([1]; dog, plasma, oral, 5 mg/kg bodyweight, 2 hours after 5 mg/kg p.o., primidone combination therapy, individual dogs, read-out: AWD 131-138 plasma concentration): 1520 ng/mL | concentration at 4 h ([1]; dog, plasma, oral, 5 mg/kg bodyweight, 4 hours after 5 mg/kg p.o., phenobarbital combination therapy, individual dogs): 174 ng/mL | concentration at 6 h ([1]; dog, plasma, oral, 5 mg/kg bodyweight, 6 hours after 5 mg/kg p.o., phenobarbital combination therapy, individual dogs): 19.5 ng/mL | concentration at 2 h ([1]; dog, plasma, oral, 30 mg/kg, 2 hours after application, 30 mg/kg, non responder dog that died in status epilepticus, read-out: AWD 131-138 plasma concentration): 4000 ng/mL | concentration at 2 h ([1]; dog, plasma, oral, 40 mg/kg/day, 2 hours after application, 40 mg/kg per day, two dogs with ataxia on combined phenobarbital treatment, read-out: AWD 131-138 plasma concentration, range): 5560 to 10900 ng/mL | concentration at 2 h ([1]; dog, plasma, oral, chronic epilepsy add on, 2 hours after application, 10-15 mg/kg twice a day, seventeen dogs, read-out: AWD 131-138 plasma concentration, range): 280 to 10600 ng/mL | concentration at 2 h ([1]; dog, plasma, oral, chronic epilepsy add on, 2 hours after application, read-out: AWD 131-138 plasma concentration, mean): 3900 ng/mL | concentration at 2 h ([1]; dog, plasma, oral, chronic epilepsy add on, 2 hours after application, read-out: AWD 131-138 plasma concentration, median): 2990 ng/mL | concentration at 12 h ([1]; dog, plasma, oral, chronic epilepsy add on, read-out: AWD 131-138 plasma concentration, mean): 644 ng/mL | concentration at 12 h ([1]; dog, plasma, oral, chronic epilepsy add on, read-out: AWD 131-138 plasma concentration, median): 179 ng/mL | concentration at 12 h ([1]; dog, plasma, oral, chronic epilepsy add on, read-out: AWD 131-138 plasma concentration, range): 7.57 to 5870 ng/mL | concentration at 2 h ([1]; dog, plasma, oral, newly diagnosed dogs, three weeks of treatment, 2 hours after oral application, 10-20 mg/kg twice a day, eleven cases, read-out: AWD 131-138 plasma concentration, range): 53.3 to 8620 ng/mL | concentration at 12 h ([1]; dog, plasma, oral, newly diagnosed dogs, three weeks, twelve dogs, read-out: AWD 131-138 plasma concentration, range): 5.4 to 1140 ng/mL | concentration at 12 h ([1]; dog, plasma, oral, newly diagnosed dogs, three weeks, read-out: AWD 131-138 plasma concentration, mean): 378 ng/mL | concentration at 12 h ([1]; dog, plasma, oral, newly diagnosed dogs, three weeks, read-out: AWD 131-138 plasma concentration, median): 218 ng/mL | concentration at 2 h ([1]; dog, plasma, po, newly diagnosed dogs, three weeks, 2 hours after oral application, read-out: AWD 131-138 plasma concentration, mean): 3360 ng/mL | concentration at 2 h ([1]; dog, plasma, po, newly diagnosed dogs, three weeks, 2 hours after oral application, read-out: AWD 131-138 plasma concentration, median): 2580 ng/mL | substitution for cocaine [2]: did not substitute for cocaine | sedation [3, 10]: no sedation occurred | tolerability [3, 10]: exceptionally well tolerated | hematology and blood chemistry ([3]; 12 newly diagnosed dogs, monotherapy, follow up): No abnormalities were found | polyphagia, cases ([3]; 12 newly diagnosed dogs, monotherapy, in 4 dogs only at the beginning): 7 (58%) | tolerability ([3]; 17 dogs with chronic epilepsy, add-on): very well tolerated | hematology (red, white and differential cell count) ([3]; 17 dogs with chronic epilepsy, add-on, follow up): No abnormalities were found | polyphagia, cases ([3]; 17 dogs with chronic epilepsy, add-on, in 7 dogs only at the beginning): 10 (59%) | elevation of liver enzymes (ALT, GLDH and AP) ([3]; AWD 131-138 monotherapy): not observed | dogs with ataxia in the hind limbs and apathy 2 4 hours after application ([3]; add-on, 40 mg/kg per day, combined phenobarbital with serum concentrations 56.6 58.9 μg/mL): Two | dogs with elevation of ALT [3, 11]: 1 | dogs with elevation of AP [3, 11]: 6 | dogs with elevation of GLDH [3, 11]: 3 | comparison of antiepileptic efficacy between the two add on treatment schedules ([4]; Fisher's exact test): did not indicate any significant difference | decrease of number of seizures per cluster, mean ([4]; add-on): 39.5% | dogs in which clusters did not occur anymore ([4]; add-on): three | dogs in which focal seizures replaced grand mal seizures partially ([4]; add-on): nine | dogs with a seizure reduction under 50% ([4]; add-on): 4 | dogs with decreased number of seizures per cluster ([4]; add-on): 4 | dogs with worsening of seizure severity reported by owner ([4]; add-on): One | number of dogs with decreased duration of the ictus ([4]; add-on): 3 | number of dogs with shortened postictal phase ([4]; add-on): ten | owners reporting subjectively a decrease of seizure severity ([4]; add-on): eight of seventeen | postictal phase during treatment, mean ([4]; add-on): 5.5 h | dogs that died or were euthanized in status epilepticus ([4]; add-on to phenobarbital or primidone): Nine | shortening of the postictal phase, mean ([4]; add-on, in the dogs with shortening): 54% | duration of the ictus during treatment, median [4, 12]: 2.0 min | duration of the ictus during treatment, time range [4, 12]: 0.5 to 5 min | duration of the ictus before treatment, median [4, 13]: 2.0 min | duration of the ictus before treatment, time range [4, 13]: 0.5 to 10 min | % reduction of seizures in responders ([4]; mean ± SEM, add-on to phenobarbital/primidone): 47.2 ± 8.8% | Seizure frequency during treatment, all dogs ([4]; median, add-on to phenobarbital/primidone): 2.0 seizures/month | Seizure frequency during treatment, without nonresponders ([4]; median, add-on to phenobarbital/primidone, asterisk = P<0.05): 1.1* seizures/month | Seizure frequency before treatment, all dogs [4, 14]: 1.9 seizures/month | Seizure frequency before treatment, without nonresponders [4, 14]: 2.4 seizures/month | comparison of antiepileptic efficacy between monotherapy treatment groups ([5]; ANOVA): did not indicate any significant differences | duration of the ictus before treatment, median [5, 15]: 3.0 min | duration of the ictus before treatment, time range [5, 15]: 0.5 to 10 min | duration of the ictus during treatment, median [5, 16]: 2.5 min | duration of the ictus during treatment, time range [5, 16]: 0.5 to 10 min | % reduction of seizures in responders ([5]; mean ± SEM, monotherapy): 49.8 ± 11.3% | Seizure frequency before treatment, all dogs [5, 17]: 1.6 seizures/month | Seizure frequency before treatment, without nonresponders [5, 17]: 1.7 seizures/month | Seizure frequency during treatment, all dogs [5, 18]: 0.71 seizures/month | Seizure frequency during treatment, without nonresponders [5, 18]: 0.55* seizures/month | dogs that died or were euthanized in status epilepticus ([5]; monotherapy): One | dogs with focal seizures instead of grand mal seizures during treatment ([5]; monotherapy): two | dogs with reduced seizure number per cluster ([5]; monotherapy): 4 | number of dogs with decreased duration of the ictus ([5]; monotherapy): five | number of dogs with shortened postictal phase ([5]; monotherapy): four | owners reporting subjectively a decrease of seizure severity ([5]; monotherapy): nine of 12 | reduction of seizure number per cluster, mean ([5]; monotherapy): 45.3% | dogs in which clusters no longer developed ([5]; monotherapy, dogs with clusters before treatment): One | decrease of the duration of the ictus, mean ([5]; monotherapy, in the dogs with a decrease): 38% | increase of seizure threshold (PTZ convulsive threshold) ([6]; 20 mg/kg p.o.): 39% | increase of seizure threshold (PTZ convulsive threshold) ([6]; 40 mg/kg p.o.): 118% | affinity for the benzodiazepine binding site [7]: very low affinity | mode of action at the benzodiazepine receptor ([8]; different cloned human GABA receptor complexes): low affinity partial agonist at the benzodiazepine receptor without subtype selectivity | maximal stimulation ([8]; of the effect of diazepam): 20% | identified as benzodiazepine like [9]: did not identify AWD 131-138 as benzodiazepine like | calcium channel blocking effect (calcium channel): weak calcium channel blocking effect
